Experiment: refractive index (other wavelength) (dimensionless); xn = mol fraction of the nth substance listed

CCCCCCCC[n+]1ccn(C)c1.F[B-](F)(F)F [1-methyl-3-octylimidazolium tetrafluoroborate] + CCCCCCCO
Minimum deviation
Conditions | refractive index
298.87 K, Liquid mixture 1, Wavelength=623.8 nm, x1 = 0.01 | 1.4213
298.87 K, Liquid mixture 2, Wavelength=623.8 nm, x1 = 0.382 | 1.4264
299.67 K, Liquid mixture 1, Wavelength=623.8 nm, x1 = 0.011 | 1.421
299.67 K, Liquid mixture 2, Wavelength=623.8 nm, x1 = 0.371 | 1.426
300.45 K, Liquid mixture 1, Wavelength=623.8 nm, x1 = 0.011 | 1.4207
300.45 K, Liquid mixture 2, Wavelength=623.8 nm, x1 = 0.359 | 1.4256
301.2 K, Liquid mixture 1, Wavelength=623.8 nm, x1 = 0.016 | 1.4205
301.2 K, Liquid mixture 2, Wavelength=623.8 nm, x1 = 0.347 | 1.4252
301.93 K, Liquid mixture 1, Wavelength=623.8 nm, x1 = 0.015 | 1.4202
301.93 K, Liquid mixture 2, Wavelength=623.8 nm, x1 = 0.335 | 1.4248
302.63 K, Liquid mixture 1, Wavelength=623.8 nm, x1 = 0.019 | 1.42
302.63 K, Liquid mixture 2, Wavelength=623.8 nm, x1 = 0.33 | 1.4245
303.31 K, Liquid mixture 1, Wavelength=623.8 nm, x1 = 0.023 | 1.4198
303.31 K, Liquid mixture 2, Wavelength=623.8 nm, x1 = 0.317 | 1.4241
303.94 K, Liquid mixture 1, Wavelength=623.8 nm, x1 = 0.025 | 1.4196
303.94 K, Liquid mixture 2, Wavelength=623.8 nm, x1 = 0.302 | 1.4237
304.5 K, Liquid mixture 1, Wavelength=623.8 nm, x1 = 0.027 | 1.4194
304.5 K, Liquid mixture 2, Wavelength=623.8 nm, x1 = 0.294 | 1.4234
305 K, Liquid mixture 1, Wavelength=623.8 nm, x1 = 0.031 | 1.4193
305 K, Liquid mixture 2, Wavelength=623.8 nm, x1 = 0.284 | 1.4231
305.41 K, Liquid mixture 1, Wavelength=623.8 nm, x1 = 0.035 | 1.4192
305.41 K, Liquid mixture 2, Wavelength=623.8 nm, x1 = 0.272 | 1.4228
305.78 K, Liquid mixture 1, Wavelength=623.8 nm, x1 = 0.037 | 1.4191
305.78 K, Liquid mixture 2, Wavelength=623.8 nm, x1 = 0.259 | 1.4225
306.09 K, Liquid mixture 1, Wavelength=623.8 nm, x1 = 0.038 | 1.419
306.09 K, Liquid mixture 2, Wavelength=623.8 nm, x1 = 0.253 | 1.4223
306.34 K, Liquid mixture 1, Wavelength=623.8 nm, x1 = 0.043 | 1.419
306.34 K, Liquid mixture 2, Wavelength=623.8 nm, x1 = 0.244 | 1.4221
306.54 K, Liquid mixture 1, Wavelength=623.8 nm, x1 = 0.048 | 1.419
306.54 K, Liquid mixture 2, Wavelength=623.8 nm, x1 = 0.242 | 1.422
306.7 K, Liquid mixture 1, Wavelength=623.8 nm, x1 = 0.051 | 1.419
306.7 K, Liquid mixture 2, Wavelength=623.8 nm, x1 = 0.232 | 1.4218
306.83 K, Liquid mixture 1, Wavelength=623.8 nm, x1 = 0.06 | 1.4191
306.83 K, Liquid mixture 2, Wavelength=623.8 nm, x1 = 0.228 | 1.4217
306.93 K, Liquid mixture 1, Wavelength=623.8 nm, x1 = 0.062 | 1.4191
306.93 K, Liquid mixture 2, Wavelength=623.8 nm, x1 = 0.224 | 1.4216
307.02 K, Liquid mixture 1, Wavelength=623.8 nm, x1 = 0.064 | 1.4191
307.02 K, Liquid mixture 2, Wavelength=623.8 nm, x1 = 0.219 | 1.4215
307.1 K, Liquid mixture 1, Wavelength=623.8 nm, x1 = 0.071 | 1.4192
307.1 K, Liquid mixture 2, Wavelength=623.8 nm, x1 = 0.221 | 1.4215
307.16 K, Liquid mixture 1, Wavelength=623.8 nm, x1 = 0.073 | 1.4192
307.16 K, Liquid mixture 2, Wavelength=623.8 nm, x1 = 0.215 | 1.4214
307.21 K, Liquid mixture 1, Wavelength=623.8 nm, x1 = 0.08 | 1.4193
307.21 K, Liquid mixture 2, Wavelength=623.8 nm, x1 = 0.217 | 1.4214
307.26 K, Liquid mixture 1, Wavelength=623.8 nm, x1 = 0.081 | 1.4193
307.26 K, Liquid mixture 2, Wavelength=623.8 nm, x1 = 0.211 | 1.4213
307.3 K, Liquid mixture 1, Wavelength=623.8 nm, x1 = 0.081 | 1.4193
307.3 K, Liquid mixture 2, Wavelength=623.8 nm, x1 = 0.204 | 1.4212
307.33 K, Liquid mixture 1, Wavelength=623.8 nm, x1 = 0.082 | 1.4193
307.33 K, Liquid mixture 2, Wavelength=623.8 nm, x1 = 0.198 | 1.4211
307.36 K, Liquid mixture 1, Wavelength=623.8 nm, x1 = 0.089 | 1.4194

85 kPa, Liquid, Wavelength=632.8 nm, Minimum Deviation
Conditions | refractive index
301.61 K, x1 = 0.7 | 1.4285
302.37 K, x1 = 0.8 | 1.429
302.37 K, x1 = 0.898 | 1.4299
303.54 K, x1 = 0.7 | 1.4279
303.94 K, x1 = 0.898 | 1.4295
303.98 K, x1 = 0.8 | 1.4286
305.36 K, x1 = 0.7 | 1.4274
305.43 K, x1 = 0.898 | 1.4291
305.58 K, x1 = 0.5 | 1.4254
305.64 K, x1 = 0.8 | 1.4282
306.75 K, x1 = 0.6 | 1.4262
307.04 K, x1 = 0.7 | 1.4269
307.1 K, x1 = 0.8 | 1.4278
307.12 K, x1 = 0.898 | 1.4286
307.21 K, x1 = 0.5 | 1.4249

Reference: the NIST ThermoML archive (doi:10.1016/j.fluid.2015.03.015)
